According to US20100298141A1, “SUBSTITUTED PYRIDINE N-OXIDE HERBICIDES” (E. I. DU PONT DE NEMOURS AND COMPANY, priority 2007, published 2010):

Legend:
wheat = experiment: Test A pre-/postemergence greenhouse test; type: in vivo, Triticum aestivum; conditions: for Plant response rating, Wheat: 0 to 100 scale where 0 is no effect and 100 is complete control; for Wheat plant response rating: 0 to 100 scale
Method in brief: (§1)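 Untreated controls served as the reference for visual injury ratings taken about ten days after spraying. The non-phytotoxic solvent/surfactant formulation was applied preemergence to seeded loam and sand and postemergence to plants two to ten cm high.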

barnyardgrass [1] = experiment: Test C flooded paddy test; type: in vivo, Echinochloa crus-galli; conditions: Flood
Method in brief: (§2)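 Greenhouse pots flooded to 3 cm above soil at time of treatment received compound via the water, which stayed at that level.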

corn = experiment: Test A pre-/postemergence greenhouse test; type: in vivo, Zea mays; conditions: for Plant response rating, Corn: 0 to 100 scale where 0 is no effect and 100 is complete control; for Corn plant response rating: 0 to 100 scale
Method in brief: as §1

crabgrass = experiment: Test A pre-/postemergence greenhouse test; type: in vivo, Digitaria sanguinalis; conditions: for Plant response rating, Crabgrass, Large: 0 to 100 scale where 0 is no effect and 100 is complete control; for Crabgrass, Large plant response rating: 0 to 100 scale
Method in brief: as §1

redroot pigweed = experiment: Test A pre-/postemergence greenhouse test; type: in vivo, Amaranthus retroflexus; conditions: for Plant response rating, Pigweed: 0 to 100 scale where 0 is no effect and 100 is complete control; for Pigweed plant response rating: 0 to 100 scale
Method in brief: as §1

velvetleaf = experiment: Test A pre-/postemergence greenhouse test; type: in vivo, Abutilon theophrasti; conditions: for Plant response rating, Velvetleaf: 0 to 100 scale where 0 is no effect and 100 is complete control; for Velvetleaf plant response rating: 0 to 100 scale
Method in brief: as §1

morningglory = experiment: Test A pre-/postemergence greenhouse test; type: in vivo, Ipomoea spp.; conditions: for Plant response rating, Morningglory: 0 to 100 scale where 0 is no effect and 100 is complete control; for Morningglory plant response rating: 0 to 100 scale
Method in brief: as §1

giant foxtail = experiment: Test A pre-/postemergence greenhouse test; type: in vivo, Setaria faberi; conditions: for Plant response rating, Foxtail, Giant: 0 to 100 scale where 0 is no effect and 100 is complete control; for Foxtail, Giant plant response rating: 0 to 100 scale
Method in brief: as §1

umbrella sedge = experiment: Test C flooded paddy test; type: in vivo, Cyperus difformis; conditions: Flood
Method in brief: as §2

duck salad = experiment: Test C flooded paddy test; type: in vivo, Heteranthera limosa; conditions: Flood
Method in brief: as §2

rice = experiment: Test C flooded paddy test; type: in vivo, Oryza sativa; conditions: Flood
Method in brief: as §2

barnyardgrass [2] = experiment: Test A pre-/postemergence greenhouse test; type: in vivo, Echinochloa crus-galli; conditions: for Plant response rating, Barnyardgrass: 0 to 100 scale where 0 is no effect and 100 is complete control; for Barnyardgrass plant response rating: 0 to 100 scale
Method in brief: as §1

[3] = Postemergence, 500 g ai/ha, 0 is no effect, 100 is complete control
[4] = Preemergence, 125 g ai/ha, 0 no effect, 100 complete control
[5] = 62 g ai/ha, scale 0 to 100 (0 no effect, 100 complete control)
[6] = 250 g ai/ha, scale 0 to 100, 0 no effect, 100 complete control, 13 to 15 days
[7] = Preemergence, 500 g ai/ha, 0 no effect, 100 complete control

| Compound | Plant response rating, Wheat (wheat; Postemergence, 125 g ai/ha) | Wheat plant response rating (wheat; [3]) | Wheat plant response rating (wheat; [4]) | Plant response rating, Barnyardgrass (barnyardgrass [1]; [5]) | Plant response rating, Barnyardgrass (barnyardgrass [1]; [6]) | Plant response rating, Corn (corn; Postemergence, 125 g ai/ha) | Corn plant response rating (corn; [3]) | Corn plant response rating (corn; [4]) | Plant response rating, Corn (corn; Preemergence, 500 g ai/ha) | Plant response rating, Crabgrass, Large (crabgrass; Postemergence, 125 g ai/ha) | Crabgrass, Large plant response rating (crabgrass; [3]) | Crabgrass, Large plant response rating (crabgrass; [4]) | Plant response rating, Crabgrass, Large (crabgrass; Preemergence, 500 g ai/ha) | Plant response rating, Pigweed (redroot pigweed; Postemergence, 125 g ai/ha) | Pigweed plant response rating (redroot pigweed; [3]) | Pigweed plant response rating (redroot pigweed; [4]) | Plant response rating, Pigweed (redroot pigweed; Preemergence, 500 g ai/ha) | Plant response rating, Velvetleaf (velvetleaf; Postemergence, 125 g ai/ha) | Velvetleaf plant response rating (velvetleaf; [3]) | Velvetleaf plant response rating (velvetleaf; [4]) | other results |
| --- | --- | --- | --- | --- | --- | --- | --- | --- | --- | --- | --- | --- | --- | --- | --- | --- | --- | --- | --- | --- | --- |
| Cn1nc(C(F)(F)F)c(CS(=O)(=O)c2cc(C(C)(C)C)cc[n+]2[O-])c1OCC(F)(F)F [Compound 72] | 0 | 60 | 30 | 0 | 0 | 0 | 0 | 0 | 50 | 0 | 60 | 80 | 100 | 20 | 60 | 60 | 90 | 0 | 40 | 0 | Plant response rating, Wheat (wheat; Preemergence, 500 g ai/ha): 70; Plant response rating, Velvetleaf (velvetleaf; Preemergence, 500 g ai/ha): 90; Plant response rating, Morningglory (morningglory; Postemergence, 125 g ai/ha): 0; Morningglory plant response rating (morningglory; [3]): 40; Morningglory plant response rating (morningglory; [4]): 0; Plant response rating, Morningglory (morningglory; Preemergence, 500 g ai/ha): 60; Plant response rating, Foxtail, Giant (giant foxtail; Postemergence, 125 g ai/ha): 10; Foxtail, Giant plant response rating (giant foxtail; [3]): 60; Foxtail, Giant plant response rating (giant foxtail; [4]): 100; Plant response rating, Foxtail, Giant (giant foxtail; Preemergence, 500 g ai/ha): 100; Plant response rating, Sedge, Umbrella (umbrella sedge; [5]): 0; Plant response rating, Sedge, Umbrella (umbrella sedge; [6]): 70; Plant response rating, Ducksalad (duck salad; [5]): 0; Plant response rating, Ducksalad (duck salad; [6]): 75; Plant response rating, Rice (rice; [5]): 0; Plant response rating, Rice (rice; [6]): 0; Plant response rating, Barnyardgrass (barnyardgrass [2]; Postemergence, 125 g ai/ha): 0; Barnyardgrass plant response rating (barnyardgrass [2]; [3]): 60; Barnyardgrass plant response rating (barnyardgrass [2]; [4]): 40; Plant response rating, Barnyardgrass (barnyardgrass [2]; Preemergence, 500 g ai/ha): 100 |
| Cc1cc[n+]([O-])c([S+]([O-])Cc2c(C(F)(F)F)nn(C)c2OCC(F)F)c1 (centres unmarked) [Compound 86] | 50 | 70 | 70 | 0 | 0 | 0 | 80 | 20 | 50 | 50 | 90 | 70 | 100 | 60 | 90 | 90 | 100 | 50 | 70 | 10 | Wheat plant response rating (wheat; [7]): 90; Velvetleaf plant response rating (velvetleaf; [7]): 80; Plant response rating, Morningglory (morningglory; Postemergence, 125 g ai/ha): 60; Morningglory plant response rating (morningglory; [3]): 90; Morningglory plant response rating (morningglory; [4]): 50; Plant response rating, Morningglory (morningglory; Preemergence, 500 g ai/ha): 90; Plant response rating, Foxtail, Giant (giant foxtail; Postemergence, 125 g ai/ha): 80; Foxtail, Giant plant response rating (giant foxtail; [3]): 90; Foxtail, Giant plant response rating (giant foxtail; [4]): 90; Plant response rating, Foxtail, Giant (giant foxtail; Preemergence, 500 g ai/ha): 100; Plant response rating, Sedge, Umbrella (umbrella sedge; [5]): 45; Plant response rating, Sedge, Umbrella (umbrella sedge; [6]): 95; Plant response rating, Ducksalad (duck salad; [5]): 65; Plant response rating, Ducksalad (duck salad; [6]): 100; Plant response rating, Rice (rice; [5]): 0; Plant response rating, Rice (rice; [6]): 0; Plant response rating, Barnyardgrass (barnyardgrass [2]; Postemergence, 125 g ai/ha): 70; Barnyardgrass plant response rating (barnyardgrass [2]; [3]): 90; Barnyardgrass plant response rating (barnyardgrass [2]; [4]): 70; Plant response rating, Barnyardgrass (barnyardgrass [2]; Preemergence, 500 g ai/ha): 100 |
